The series relates to RAW264.7 cells. In words: CCK-8 cytotoxicity evaluation. Type of series: cell-based. The settings on record: CCK-8 activity at 450 nm, after 3 days, FIG. 3. As to the method:
Then, after 3 days, CCK-8 (Dojindo, CCK-8 kit) solution was added to 1/10 volume of the culture medium, diluted, and incubated for 2 hours. Thereafter, the culture medium was sampled and CCK-8 activity was confirmed at a wavelength of 450 nm using a microplate reader.

SMILES strings stand for the structures. Peptide text beside a SMILES is read from it.

On to `CC[C@H](C)[C@H](N)C(=O)N[C@H](C(=O)N[C@@H](C)C(=O)N1CCC[C@H]1C(=O)N[C@H](C(=O)NCC(=O)N[C@@H](Cc1ccc(O)cc1)C(=O)N[C@@H](Cc1ccc(O)cc1)C(=O)NCC(=O)N[C@@H](CC(N)=O)C(=O)O)[C@@H](C)O)[C@@H](C)CC` [Peptide-2, IIAPTGYYGN] (H-IIAPTGYYGN-OH), for which the cytotoxicity entry is “did not exhibit cytotoxicity”.

These data come from patent EP4631960A1, “PEPTIDE HAVING INHIBITORY ACTIVITY AGAINST OSTEOCLAST DIFFERENTIATION, AND USE THEREOF” (Caregen Co., Ltd., priority 2022, dated 2024).
